Here are results for four molecules from patent US20170334927A1 (Shanghai Sun-sail Pharmaceutical Science & Technology Co., …, priority 2014, published 2017).

By AUC(0-inf) is commonly meant the area under the concentration-time curve extrapolated to infinity. Usually AUC(0-t) stands for exposure summed from dosing to a finite time, without extrapolation to infinity. The Cmax is the maximum level reached in the sampled fluid or tissue. What is called MRT is a mean duration of stay, worked out from the concentration-time curve. Broadly, the Tmax is the time at which the peak concentration occurs. The half-life is the time in which the quantity being followed falls by half. Usually solubility stands for how much of the substance goes into solution per volume. Read a low solubility as little dissolved substance. By Solubility is commonly meant how much of the substance goes into solution per volume.

Values after ≈ are worked out from the molar mass of the structure shown.

Data set [1] can be described thus: Drug metabolism test (pharmacokinetics, oral, mice). The data set is classed as in vivo, ICR mice. The following applies: 10 mg/kg; for AUC(0-inf) / AUC(0-t) / Cmax / MRT / Tmax / half-life: male, ICR, mouse, po, orally (intragastric), plasma; for pharmacokinetic properties (in words): orally, judgement on Table 6. The protocol: 18 healthy male ICR mice with a body weight of 18-22 g were administered drugs by intragastric administration, with an administration dose of 10 mg/kg and an administration volume of 10 mL/kg, respectively. These mice were fasted for 12 h before the test and had free access to drinking water. These mice were fed 2 h after administration uniformly. 0.3 mL of blood was taken from the postocular venous plexus of a mouse at the set time points, placed in a heparinized test tube and centrifuged for 10 min at 3000 rpm; and plasma was separated and frozen in a refrigerator at −20° C. When measured, the sample was treated through the method for treating the plasma sample, and the drug concentration in plasma was determined by LC-MS/MS and the pharmacokinetic parameters of the drug were calculated.

The subject of data set [2] is Mycobacterium tuberculosis H37Rv. The data set is described as follows: Activity test for Mycobacterium tuberculosis (MIC, H37Rv). The data set is classed as cell-based. The following applies: for anti Mycobacterium tuberculosis activity (MIC against H37Rv), times of that of PA-824: relative to PA-824; for anti Mycobacterium tuberculosis activity (MIC against H37Rv), times of that of ethambutol: relative to ethambutol; for MIC: Mycobacterium tuberculosis H37Rv, liquid medium, 37° C., read-out: Minimum inhibitory concentration against H37Rv. The protocol: The tested strain H37Rv was transferred to liquid medium and cultured for 2 weeks at 37° C.; a small amount of the cultured bacterial solution was pipetted and placed in 4 mL of liquid medium; 10-20 sterile glass beads with a diameter of 2-3 mm were added; the mixture was shaken for 20-30 s and left to sediment for 10-20 min; the supernatant of the bacterial suspension was pipetted and adjusted to a turbidity of 1 MCF (equivalent to 1×10^7 CFU/mL) with the liquid medium for use. Each drug was dissolved to 1 mg/mL with an appropriate amount of DMSO and filtered with a 0.22 μm filter. Then, the solution was diluted to a desired experimental concentration with the liquid medium. The final concentrations of the tested drugs were set as follows: 0.001 μg/mL, 0.002 μg/mL, 0.0039 μg/mL, 0.0078 μg/mL, […], 0.03125 μg/mL, 0.0625 μg/mL, 0.125 μg/mL, 0.25 μg/mL, 0.5 μg/mL and 1 μg/mL, a total of 11 concentration gradients. 100 μL of each of the above-mentioned drug solutions was added to a 96-well microwell plate, then 100 μL bacterial solution with a concentration of 1 mg/mL was added to allow the drug concentration to reach the final set concentration, and cultured at 37° C. Three groups in parallel were set for each drug dilution with inoculation amounts of 100%, 10% and 1%, respectively, while no drug was added to the control group.

The nature of data set [3]: physchem. The data set is classed as physicochemical. The following applies: for solubility at 3 days: pH 1.2, simulated gastric fluid, thermodynamic from solid; for Solubility: 3 days, pH 1.2. The protocol:
3-5 mg of compound to be tested was added to 0.5 mL of aqueous HCl solution (pH=1.2) and the mixture was shaken for three days on a shaker; the sample was centrifuged for 5 min at 10,000 rpm in a centrifuge; a volumetric flask (50 mL) was loaded with 2 mL of supernatant and water was added to a volume at the graduation mark to prepare a sample solution; and 2.6 mg of sample was precisely weighed into a volumetric flask (50 mL), an appropriate amount of methanol was added to dissolve the sample, and water was added to a volume at the graduation mark and shaken well to give a control sample solution. 20 μL of sample solution and control sample solution were each injected, and tested by liquid chromatography. The solubility was calculated as follows:
Solubility (mg/mL)=C (control)*25*A (sample)/A (control)
C (control): concentration of the control sample
A (sample): peak area of the liquid chromatogram of the sample solution
A (control): peak area of the liquid chromatogram of the control sample solution

With `N#CC1(c2ccc(OC(F)(F)F)cc2)CCN(c2ccc(CN[C@@H]3COc4nc([N+](=O)[O-])cn4C3)cn2)CC1` [Compound 10, (S)-1-(5-(((7-nitro-3,4-dihydro-2H-imidazo[2,1-b][1,3]oxazin-3-yl)amino)methyl)pyridin-2-yl)-4-(4-(trifluoromethoxy)phenyl)piperidine-4-carbonitrile], in data set [1], the total exposure AUC(0-inf) amounted to 28800 ng·h/mL, the AUC(0-t) was determined as 28800 ng·h/mL, the highest level (Cmax) was 2030 ng/mL and the MRT was 4.68 h. For the same molecule, in data set [1], the time of peak concentration (Tmax) came out at 2.18 h, the half-life is 201 min and the “pharmacokinetic properties (in words)” value is on record as “excellent”. In data set [2], the “anti Mycobacterium tuberculosis activity (MIC against H37Rv), times of that of PA-824” value is on record as 32 times; the “anti Mycobacterium tuberculosis activity (MIC against H37Rv), times of that of ethambutol” value was 256 times; the MIC was determined as 1.95 ng/mL (≈ 0.00359 µM). The molecule further gave a solubility at 3 days in data set [3] of 522 µg/mL (≈ 960 µM).
In data set [1], `CC1CN(c2ccc(OC(F)(F)F)cc2)CCN1c1ncc(CN[C@@H]2COc3nc([N+](=O)[O-])cn3C2)cn1` (stereo partly drawn) [Compound 20, (3S)—N-((6-(2-methyl-4-(4-(trifluoromethoxy)phenyl)piperazin-1-yl)pyrimidin-3-yl)methyl)-7-nitro-3,4-dihydro-2H-imidazo[2,1-b][1,3]oxazin-3-amine] displayed a total exposure AUC(0-inf) of 21600 ng·h/mL, an AUC(0-t) of 21500 ng·h/mL, a Cmax of 2100 ng/mL and an MRT of 4.82 h. Besides, in data set [1], the Tmax is 2.33 h, the half-life is 179 min and the “pharmacokinetic properties (in words)” value was “excellent”. Also, in data set [2], the “anti Mycobacterium tuberculosis activity (MIC against H37Rv), times of that of PA-824” value came out at 32 times; the “anti Mycobacterium tuberculosis activity (MIC against H37Rv), times of that of ethambutol” value stood at 256 times; the MIC came out at 1.95 ng/mL (≈ 0.00365 µM). Also, in data set [3], the Solubility was determined as 1.0238 mg/mL (≈ 1920 µM) and the solubility at 3 days is greater than 1000 µg/mL.
In data set [1], `N#CC1(c2ccc(OC(F)(F)F)cc2)CCN(c2ncc(CN[C@@H]3COc4nc([N+](=O)[O-])cn4C3)cn2)CC1` [Compound 24, (S)-1-(5-(((7-nitro-3,4-dihydro-2H-imidazo[2,1-b][1,3]oxazin-3-yl)amino)methyl)pyrimidin-2-yl)-4-(4-(trifluoromethoxy)phenyl)piperidine-4-carbonitrile] gave an AUC(0-inf) of 18300 ng·h/mL, an AUC(0-t) of 18200 ng·h/mL, a Cmax of 1980 ng/mL and an MRT of 4.45 h. Further, in data set [1], the time of peak concentration (Tmax) stood at 2.17 h and the half-life is 211 min. Moreover, in data set [2], the “anti Mycobacterium tuberculosis activity (MIC against H37Rv), times of that of PA-824” value is given as 16 times; the “anti Mycobacterium tuberculosis activity (MIC against H37Rv), times of that of ethambutol” value amounted to 128 times; the MIC stood at 3.9 ng/mL (≈ 0.00716 µM). This molecule showed a solubility at 3 days in data set [3] of 782 µg/mL (≈ 1440 µM).
In data set [1], `Cc1nc(N2CCN(c3ccc(OC(F)(F)F)cc3)CC2)ncc1CN[C@@H]1COc2nc([N+](=O)[O-])cn2C1` [Compound 36] yielded a total exposure AUC(0-inf) of 16700 ng·h/mL, an AUC(0-t) of 16100 ng·h/mL, a Cmax of 2020 ng/mL and an MRT of 4.71 h. In addition, in data set [1], the Tmax came out at 1.87 h and the half-life is 172 min. Besides, in data set [2], the “anti Mycobacterium tuberculosis activity (MIC against H37Rv), times of that of PA-824” value is on record as 8 times; the “anti Mycobacterium tuberculosis activity (MIC against H37Rv), times of that of ethambutol” value was 64 times; the MIC was found to be 7.8 ng/mL (≈ 0.0146 µM). Also, in data set [3], the Solubility came to 1.1237 mg/mL (≈ 2100 µM) and the solubility at 3 days is greater than 1000 µg/mL.
